Measured values published in ChEMBL document CHEMBL4393686, “InCl3 mediated heteroarylation of indoles and their derivatization via CH activation strategy: Discovery of 2-(1H-indol-3-yl)-quinoxaline derivatives as a new class of PDE4B selective inhibitors for arthritis and/or multiple sclerosis” (Eur J Med Chem, 2019).

Tests used:
[1] = biological target: High affinity cAMP-specific and IBMX-insensitive 3',5'-cyclic phosphodiesterase 8A (Homo sapiens) (UniProt O60658); assay: Inhibition of recombinant N-terminal GST-tagged full length human PDE8A1 expressed in Sf9 cells using FAM-cAMP as substrate at 10xIC50 incubated for 60 mins by fluorescence plate reader analysis
[2] = biological target: High affinity cAMP-specific and IBMX-insensitive 3',5'-cyclic phosphodiesterase 8A (Homo sapiens) (UniProt O60658); assay: Inhibition of recombinant N-terminal GST-tagged full length human PDE8A1 expressed in Sf9 cells using FAM-cAMP as substrate at 0.1xIC50 incubated for 60 mins by fluorescence plate reader analysis
[3] = biological target: 3',5'-cyclic-AMP phosphodiesterase 7B (Homo sapiens) (UniProt Q9NP56); assay: Inhibition of recombinant N-terminal GST tagged and C-terminal His-tagged human PDE7B (109-ens aa) expressed in Sf9 cells using FAM-cAMP as substrate at 1xIC50 incubated for 60 mins by fluorescence plate reader analysis
[4] = biological target: 3',5'-cyclic-AMP phosphodiesterase 7B (Homo sapiens) (UniProt Q9NP56); assay: Inhibition of recombinant N-terminal GST tagged and C-terminal His-tagged human PDE7B (109-ens aa) expressed in Sf9 cells using FAM-cAMP as substrate at 0.1xIC50 incubated for 60 mins by fluorescence plate reader analysis
[5] = biological target: High affinity cAMP-specific and IBMX-insensitive 3',5'-cyclic phosphodiesterase 8A (Homo sapiens) (UniProt O60658); assay: Inhibition of recombinant N-terminal GST-tagged full length human PDE8A1 expressed in Sf9 cells using FAM-cAMP as substrate at 1xIC50 incubated for 60 mins by fluorescence plate reader analysis
[6] = biological target: High affinity 3',5'-cyclic-AMP phosphodiesterase 7A (Homo sapiens) (UniProt Q13946); assay: Inhibition of recombinant N-terminal GST tagged human PDE7A1 (122-end aa) expressed in Sf9 cells using FAM-cAMP as substrate at 10xIC50 incubated for 60 mins by fluorescence plate reader analysis
Sequence of High affinity 3',5'-cyclic-AMP phosphodiesterase 7A (Homo sapiens) (Q13946 whole entry): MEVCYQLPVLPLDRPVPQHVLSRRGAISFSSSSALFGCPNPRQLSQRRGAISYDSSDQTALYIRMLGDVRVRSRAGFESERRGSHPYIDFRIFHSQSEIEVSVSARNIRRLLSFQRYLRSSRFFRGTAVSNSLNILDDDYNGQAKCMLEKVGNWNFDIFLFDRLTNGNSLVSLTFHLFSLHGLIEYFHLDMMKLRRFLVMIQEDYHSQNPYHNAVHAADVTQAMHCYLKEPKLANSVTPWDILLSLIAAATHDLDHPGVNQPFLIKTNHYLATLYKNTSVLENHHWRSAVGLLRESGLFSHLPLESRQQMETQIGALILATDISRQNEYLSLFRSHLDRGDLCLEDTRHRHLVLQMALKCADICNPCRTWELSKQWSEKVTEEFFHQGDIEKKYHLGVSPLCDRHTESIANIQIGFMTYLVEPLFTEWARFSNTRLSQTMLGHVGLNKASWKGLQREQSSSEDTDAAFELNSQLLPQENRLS

[7] = biological target: High affinity 3',5'-cyclic-AMP phosphodiesterase 7A (Homo sapiens) (UniProt Q13946); assay: Inhibition of recombinant N-terminal GST tagged human PDE7A1 (122-end aa) expressed in Sf9 cells using FAM-cAMP as substrate at 0.1xIC50 incubated for 60 mins by fluorescence plate reader analysis
[8] = biological target: High affinity 3',5'-cyclic-AMP phosphodiesterase 7A (Homo sapiens) (UniProt Q13946); assay: Inhibition of recombinant N-terminal GST tagged human PDE7A1 (122-end aa) expressed in Sf9 cells using FAM-cAMP as substrate at 1xIC50 incubated for 60 mins by fluorescence plate reader analysis
[9] = Toxicity in zebrafish embryo assessed as effect in somite formation at 3000 uM; parameters: species or system Danio rerio; conditions: in vivo
[10] = Toxicity in zebrafish embryo assessed as effect in fin formation at 3000 uM; parameters: species or system Danio rerio; conditions: in vivo
[11] = Toxicity in zebrafish embryo assessed as effect in tail formation at 3000 uM; parameters: species or system Danio rerio; conditions: in vivo
[12] = Toxicity in zebrafish embryo assessed as effect in upper jaw formation at 3000 uM; parameters: species or system Danio rerio; conditions: in vivo
[13] = Toxicity in zebrafish embryo assessed as effect in intestine formation at 3000 uM; type: tissue-based, Danio rerio; conditions: in vivo
[14] = Toxicity in zebrafish embryo assessed as effect in lower jaw formation at 3000 uM; parameters: species or system Danio rerio; conditions: in vivo
[15] = Toxicity in zebrafish embryo assessed as change in body shape at 3000 uM; parameters: species or system Danio rerio; conditions: in vivo
[16] = Toxicity in zebrafish embryo assessed as effect in liver formation at 3000 uM; parameters: species or system Danio rerio; conditions: in vivo
[17] = Toxicity in zebrafish embryo assessed as effect in heart formation at 3000 uM; type: tissue-based, Danio rerio; conditions: in vivo
[18] = Toxicity in zebrafish embryo assessed as effect in notochord formation at 3000 uM; parameters: species or system Danio rerio; conditions: in vivo
[19] = Toxicity in zebrafish embryo assessed as effect in swim bladder formation at 3000 uM; parameters: species or system Danio rerio; conditions: in vivo
[20] = Toxicity in zebrafish embryo assessed as effect in brain formation at 3000 uM; type: tissue-based, Danio rerio; conditions: in vivo
[21] = biological target: cGMP-inhibited 3',5'-cyclic phosphodiesterase 3B (Homo sapiens) (UniProt Q13370); assay: Inhibition of recombinant N-terminal GST-tagged human PDE3B (592-end aa) expressed in Sf9 cells using FAM-cAMP as substrate at 0.1xIC50 incubated for 60 mins by fluorescence plate reader analysis
[22] = biological target: cGMP-inhibited 3',5'-cyclic phosphodiesterase 3A (Homo sapiens) (UniProt Q14432); assay: Inhibition of recombinant PDE3A (unknown origin) using FAM-cAMP as substrate at 0.1xIC50 incubated for 60 mins by fluorescence plate reader analysis
Sequence of cGMP-inhibited 3',5'-cyclic phosphodiesterase 3A (Homo sapiens) (Q14432 whole entry): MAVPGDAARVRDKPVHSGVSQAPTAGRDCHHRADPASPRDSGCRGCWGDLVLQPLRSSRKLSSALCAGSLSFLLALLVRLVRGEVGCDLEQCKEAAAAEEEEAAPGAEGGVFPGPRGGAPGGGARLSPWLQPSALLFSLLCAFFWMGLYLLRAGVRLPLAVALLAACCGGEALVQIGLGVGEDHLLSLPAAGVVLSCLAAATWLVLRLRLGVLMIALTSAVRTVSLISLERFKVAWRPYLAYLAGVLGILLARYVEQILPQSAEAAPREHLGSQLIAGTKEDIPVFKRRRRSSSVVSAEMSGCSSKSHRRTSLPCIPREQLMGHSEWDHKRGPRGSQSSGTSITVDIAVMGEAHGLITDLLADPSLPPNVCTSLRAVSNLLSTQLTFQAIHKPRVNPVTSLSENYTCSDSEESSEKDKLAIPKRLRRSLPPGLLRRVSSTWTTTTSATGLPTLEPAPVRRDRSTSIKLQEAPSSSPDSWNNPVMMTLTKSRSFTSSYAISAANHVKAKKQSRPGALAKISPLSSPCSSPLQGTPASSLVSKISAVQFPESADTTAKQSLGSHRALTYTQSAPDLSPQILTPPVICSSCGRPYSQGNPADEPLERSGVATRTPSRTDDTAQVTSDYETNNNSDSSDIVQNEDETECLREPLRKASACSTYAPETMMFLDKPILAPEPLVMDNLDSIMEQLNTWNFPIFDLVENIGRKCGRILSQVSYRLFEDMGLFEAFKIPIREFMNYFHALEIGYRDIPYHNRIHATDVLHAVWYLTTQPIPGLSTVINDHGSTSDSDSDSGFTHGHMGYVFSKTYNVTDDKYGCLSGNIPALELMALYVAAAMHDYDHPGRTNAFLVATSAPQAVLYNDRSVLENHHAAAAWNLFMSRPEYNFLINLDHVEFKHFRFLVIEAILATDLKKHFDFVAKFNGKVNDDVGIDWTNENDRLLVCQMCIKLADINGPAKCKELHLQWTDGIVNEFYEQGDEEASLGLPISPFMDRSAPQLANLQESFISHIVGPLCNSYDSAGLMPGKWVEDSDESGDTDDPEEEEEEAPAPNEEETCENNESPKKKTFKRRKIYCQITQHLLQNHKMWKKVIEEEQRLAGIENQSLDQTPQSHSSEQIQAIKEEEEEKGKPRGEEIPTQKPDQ

[23] = biological target: cGMP-inhibited 3',5'-cyclic phosphodiesterase 3A (Homo sapiens) (UniProt Q14432); assay: Inhibition of recombinant PDE3A (unknown origin) using FAM-cAMP as substrate at 1xIC50 incubated for 60 mins by fluorescence plate reader analysis
[24] = biological target: cGMP-inhibited 3',5'-cyclic phosphodiesterase 3B (Homo sapiens) (UniProt Q13370); assay: Inhibition of recombinant N-terminal GST-tagged human PDE3B (592-end aa) expressed in Sf9 cells using FAM-cAMP as substrate at 1xIC50 incubated for 60 mins by fluorescence plate reader analysis
[25] = biological target: cGMP-inhibited 3',5'-cyclic phosphodiesterase 3A (Homo sapiens) (UniProt Q14432); assay: Inhibition of recombinant PDE3A (unknown origin) using FAM-cAMP as substrate at 10xIC50 incubated for 60 mins by fluorescence plate reader analysis
[26] = biological target: cGMP-inhibited 3',5'-cyclic phosphodiesterase 3B (Homo sapiens) (UniProt Q13370); assay: Inhibition of recombinant N-terminal GST-tagged human PDE3B (592-end aa) expressed in Sf9 cells using FAM-cAMP as substrate at 10xIC50 incubated for 60 mins by fluorescence plate reader analysis
[27] = biological target: Dual specificity calcium/calmodulin-dependent 3',5'-cyclic nucleotide phosphodiesterase 1C (Homo sapiens) (UniProt Q14123); assay: Inhibition of recombinant N-terminal GST tagged human PDE1C (2 to 634 aa) expressed in Sf9 cells at 0.1xIC50 using FAM-cAMP as substrate incubated for 60 mins by fluorescence plate reader analysis
Sequence of Dual specificity calcium/calmodulin-dependent 3',5'-cyclic nucleotide phosphodiesterase 1C (Homo sapiens) (Q14123 whole entry, the tested form may be a part): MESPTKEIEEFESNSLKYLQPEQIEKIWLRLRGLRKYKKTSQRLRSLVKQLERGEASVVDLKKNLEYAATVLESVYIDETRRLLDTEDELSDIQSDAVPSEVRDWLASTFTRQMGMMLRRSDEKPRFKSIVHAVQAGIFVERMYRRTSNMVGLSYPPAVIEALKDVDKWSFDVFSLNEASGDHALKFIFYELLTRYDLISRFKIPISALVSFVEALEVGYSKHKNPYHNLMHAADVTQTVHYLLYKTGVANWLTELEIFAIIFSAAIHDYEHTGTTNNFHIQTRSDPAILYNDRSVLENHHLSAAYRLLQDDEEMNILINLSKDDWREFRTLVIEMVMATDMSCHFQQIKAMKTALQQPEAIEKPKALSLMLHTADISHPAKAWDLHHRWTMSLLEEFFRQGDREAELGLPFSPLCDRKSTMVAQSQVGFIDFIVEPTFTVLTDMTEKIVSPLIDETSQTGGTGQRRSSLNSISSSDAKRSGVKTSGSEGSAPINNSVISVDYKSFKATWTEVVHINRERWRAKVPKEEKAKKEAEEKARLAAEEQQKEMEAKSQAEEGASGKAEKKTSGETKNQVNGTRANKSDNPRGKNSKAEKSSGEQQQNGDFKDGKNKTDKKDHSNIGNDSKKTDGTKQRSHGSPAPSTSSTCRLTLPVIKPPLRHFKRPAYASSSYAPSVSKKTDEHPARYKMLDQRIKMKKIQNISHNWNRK

[28] = biological target: Dual specificity calcium/calmodulin-dependent 3',5'-cyclic nucleotide phosphodiesterase 1A (Homo sapiens) (UniProt P54750); assay: Inhibition of recombinant N-terminal GST-tagged full-length human PDE1A1 expressed in Sf9 cells using FAM-cAMP as substrate at 1xIC50 incubated for 60 mins by fluorescence plate reader analysis
Sequence of Dual specificity calcium/calmodulin-dependent 3',5'-cyclic nucleotide phosphodiesterase 1A (Homo sapiens) (P54750 whole entry, the tested form may be a part): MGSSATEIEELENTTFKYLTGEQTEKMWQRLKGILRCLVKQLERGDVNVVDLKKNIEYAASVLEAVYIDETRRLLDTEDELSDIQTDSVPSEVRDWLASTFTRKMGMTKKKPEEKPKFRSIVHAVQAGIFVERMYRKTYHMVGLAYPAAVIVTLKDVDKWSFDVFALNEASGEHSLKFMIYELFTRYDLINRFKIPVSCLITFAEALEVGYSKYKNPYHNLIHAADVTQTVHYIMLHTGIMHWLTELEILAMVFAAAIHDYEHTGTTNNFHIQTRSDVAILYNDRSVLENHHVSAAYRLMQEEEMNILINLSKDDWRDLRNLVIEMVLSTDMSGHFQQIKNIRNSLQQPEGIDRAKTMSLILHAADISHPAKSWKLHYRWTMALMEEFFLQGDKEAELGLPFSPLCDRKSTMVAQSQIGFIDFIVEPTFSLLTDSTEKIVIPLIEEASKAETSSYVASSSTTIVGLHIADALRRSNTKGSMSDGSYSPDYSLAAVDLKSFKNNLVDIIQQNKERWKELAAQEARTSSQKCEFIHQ

[29] = biological target: Dual specificity calcium/calmodulin-dependent 3',5'-cyclic nucleotide phosphodiesterase 1B (Homo sapiens) (UniProt Q01064); assay: Inhibition of recombinant N-terminal GST tagged full length human PDE1B expressed in Sf9 cells using FAM-cAMP as substrate at 0.1xIC50 incubated for 60 mins by fluorescence plate reader analysis
Sequence of Dual specificity calcium/calmodulin-dependent 3',5'-cyclic nucleotide phosphodiesterase 1B (Homo sapiens) (Q01064 whole entry, the tested form may be a part): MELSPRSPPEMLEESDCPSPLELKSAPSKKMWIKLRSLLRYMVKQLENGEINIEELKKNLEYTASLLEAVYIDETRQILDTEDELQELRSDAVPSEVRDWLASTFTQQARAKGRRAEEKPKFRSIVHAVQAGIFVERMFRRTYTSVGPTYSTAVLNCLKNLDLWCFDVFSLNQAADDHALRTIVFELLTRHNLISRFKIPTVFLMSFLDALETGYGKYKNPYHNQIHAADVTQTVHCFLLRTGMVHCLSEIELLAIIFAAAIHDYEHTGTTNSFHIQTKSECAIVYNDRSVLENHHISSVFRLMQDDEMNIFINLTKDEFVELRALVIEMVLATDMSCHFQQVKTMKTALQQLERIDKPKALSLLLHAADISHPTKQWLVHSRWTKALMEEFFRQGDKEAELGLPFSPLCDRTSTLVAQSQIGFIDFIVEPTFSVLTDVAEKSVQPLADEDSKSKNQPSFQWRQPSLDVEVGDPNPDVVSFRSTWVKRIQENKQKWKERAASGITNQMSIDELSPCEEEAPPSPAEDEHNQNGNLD

[30] = biological target: Dual specificity calcium/calmodulin-dependent 3',5'-cyclic nucleotide phosphodiesterase 1C (Homo sapiens) (UniProt Q14123); assay: Inhibition of recombinant N-terminal GST tagged human PDE1C (2 to 634 aa) expressed in Sf9 cells at 1xIC50 using FAM-cAMP as substrate incubated for 60 mins by fluorescence plate reader analysis
[31] = biological target: Dual specificity calcium/calmodulin-dependent 3',5'-cyclic nucleotide phosphodiesterase 1B (Homo sapiens) (UniProt Q01064); assay: Inhibition of recombinant N-terminal GST tagged full length human PDE1B expressed in Sf9 cells using FAM-cAMP as substrate at 1xIC50 incubated for 60 mins by fluorescence plate reader analysis
[32] = biological target: Dual specificity calcium/calmodulin-dependent 3',5'-cyclic nucleotide phosphodiesterase 1B (Homo sapiens) (UniProt Q01064); assay: Inhibition of recombinant N-terminal GST tagged full length human PDE1B expressed in Sf9 cells using FAM-cAMP as substrate at 10xIC50 incubated for 60 mins by fluorescence plate reader analysis
[33] = biological target: Dual specificity calcium/calmodulin-dependent 3',5'-cyclic nucleotide phosphodiesterase 1A (Homo sapiens) (UniProt P54750); assay: Inhibition of recombinant N-terminal GST-tagged full-length human PDE1A1 expressed in Sf9 cells using FAM-cAMP as substrate at 0.1xIC50 incubated for 60 mins by fluorescence plate reader analysis
[34] = biological target: Dual specificity calcium/calmodulin-dependent 3',5'-cyclic nucleotide phosphodiesterase 1C (Homo sapiens) (UniProt Q14123); assay: Inhibition of recombinant N-terminal GST tagged human PDE1C (2 to 634 aa) expressed in Sf9 cells at 10xIC50 using FAM-cAMP as substrate incubated for 60 mins by fluorescence plate reader analysis
[35] = biological target: Dual specificity calcium/calmodulin-dependent 3',5'-cyclic nucleotide phosphodiesterase 1A (Homo sapiens) (UniProt P54750); assay: Inhibition of recombinant N-terminal GST-tagged full-length human PDE1A1 expressed in Sf9 cells using FAM-cAMP as substrate at 10xIC50 incubated for 60 mins by fluorescence plate reader analysis
[36] = Inhibition of recombinant N-terminal GST-tagged full length human PDE4A1A expressed in Sf9 cells using cAMP as substrate at 1xIC50 incubated for 60 mins by fluorescence plate reader analysis
[37] = biological target: 3',5'-cyclic-AMP phosphodiesterase 4A (Homo sapiens) (UniProt P27815); assay: Inhibition of recombinant N-terminal GST tagged human PDE4A4B (2-end aa) expressed in Sf9 cells using FAM-cAMP as substrate at 1xIC50 incubated for 60 mins by fluorescence plate reader analysis
Sequence of 3',5'-cyclic-AMP phosphodiesterase 4A (Homo sapiens) (P27815 whole entry): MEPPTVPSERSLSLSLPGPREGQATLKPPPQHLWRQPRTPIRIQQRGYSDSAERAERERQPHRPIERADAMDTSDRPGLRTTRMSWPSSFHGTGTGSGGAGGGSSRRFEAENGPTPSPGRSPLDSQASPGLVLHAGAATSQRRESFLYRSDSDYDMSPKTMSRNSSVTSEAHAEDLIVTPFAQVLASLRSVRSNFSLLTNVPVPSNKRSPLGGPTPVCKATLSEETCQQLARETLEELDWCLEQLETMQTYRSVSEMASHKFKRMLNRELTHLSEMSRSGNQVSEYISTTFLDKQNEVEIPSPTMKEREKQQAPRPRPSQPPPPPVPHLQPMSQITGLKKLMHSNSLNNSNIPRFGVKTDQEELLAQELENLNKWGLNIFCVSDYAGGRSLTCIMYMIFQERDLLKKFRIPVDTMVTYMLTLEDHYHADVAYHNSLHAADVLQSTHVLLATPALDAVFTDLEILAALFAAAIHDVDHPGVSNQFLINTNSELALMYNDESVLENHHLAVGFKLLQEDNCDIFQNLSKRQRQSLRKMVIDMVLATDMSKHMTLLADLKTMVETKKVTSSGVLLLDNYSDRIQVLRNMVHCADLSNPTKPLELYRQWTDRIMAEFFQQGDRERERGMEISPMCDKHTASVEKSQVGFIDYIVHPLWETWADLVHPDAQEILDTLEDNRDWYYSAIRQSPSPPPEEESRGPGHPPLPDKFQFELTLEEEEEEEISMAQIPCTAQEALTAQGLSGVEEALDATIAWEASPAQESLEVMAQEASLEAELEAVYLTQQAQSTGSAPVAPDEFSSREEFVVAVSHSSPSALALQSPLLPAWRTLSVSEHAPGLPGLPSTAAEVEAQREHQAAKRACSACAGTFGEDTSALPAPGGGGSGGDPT

[38] = biological target: 3',5'-cyclic-AMP phosphodiesterase 4A (Homo sapiens) (UniProt P27815); assay: Inhibition of recombinant N-terminal GST tagged human PDE4A4B (2-end aa) expressed in Sf9 cells using FAM-cAMP as substrate at 10xIC50 incubated for 60 mins by fluorescence plate reader analysis
[39] = Inhibition of recombinant N-terminal GST-tagged full length human PDE4A1A expressed in Sf9 cells using cAMP as substrate at 10xIC50 incubated for 60 mins by fluorescence plate reader analysis
[40] = Inhibition of recombinant N-terminal GST-tagged full length human PDE4A1A expressed in Sf9 cells using cAMP as substrate at 0.1xIC50 incubated for 60 mins by fluorescence plate reader analysis
[41] = biological target: 3',5'-cyclic-AMP phosphodiesterase 4A (Homo sapiens) (UniProt P27815); assay: Inhibition of recombinant N-terminal GST tagged human PDE4A4B (2-end aa) expressed in Sf9 cells using FAM-cAMP as substrate at 0.1xIC50 incubated for 60 mins by fluorescence plate reader analysis
[42] = biological target: T1, 3',5'-cyclic-AMP phosphodiesterase 4B (Homo sapiens, UniProt Q07343); assay: Inhibition of human recombinant His-tagged PDE4B expressed in Sf9 cells using cAMP as substrate at 10 uM preincubated with enzyme for 15 mins followed by substrate addition and incubated for 1 hr by PDELight HTS cAMP phosphodiesterase Kit based luminometry relative to control
T1 sequence (Q07343 whole entry): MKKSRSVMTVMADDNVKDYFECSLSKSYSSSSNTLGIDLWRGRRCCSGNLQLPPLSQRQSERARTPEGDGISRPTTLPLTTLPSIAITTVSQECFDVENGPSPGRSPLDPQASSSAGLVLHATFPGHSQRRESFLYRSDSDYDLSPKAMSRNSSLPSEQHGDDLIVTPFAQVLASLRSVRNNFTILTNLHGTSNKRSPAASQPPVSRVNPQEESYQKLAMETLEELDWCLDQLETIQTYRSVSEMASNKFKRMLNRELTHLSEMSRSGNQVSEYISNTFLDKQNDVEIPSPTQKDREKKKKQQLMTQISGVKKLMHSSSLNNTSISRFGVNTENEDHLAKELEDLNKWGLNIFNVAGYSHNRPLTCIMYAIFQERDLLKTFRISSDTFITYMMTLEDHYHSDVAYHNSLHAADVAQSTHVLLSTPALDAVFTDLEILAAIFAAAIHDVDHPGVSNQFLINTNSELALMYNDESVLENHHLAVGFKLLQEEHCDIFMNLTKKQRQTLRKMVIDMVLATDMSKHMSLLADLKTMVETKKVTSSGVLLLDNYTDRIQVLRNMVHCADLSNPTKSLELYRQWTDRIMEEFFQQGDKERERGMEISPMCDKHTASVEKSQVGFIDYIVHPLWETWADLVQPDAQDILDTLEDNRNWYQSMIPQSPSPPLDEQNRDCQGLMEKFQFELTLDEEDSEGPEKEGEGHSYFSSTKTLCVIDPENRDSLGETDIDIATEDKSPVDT

[43] = biological target: T1, 3',5'-cyclic-AMP phosphodiesterase 4B; assay: Inhibition of recombinant His-tagged human PDE4B expressed in Sf9 cells using cAMP as substrate preincubated with enzyme for 15 mins followed by substrate addition and incubated for 1 hr by PDELight HTS cAMP phosphodiesterase Kit based luminometry
Homo sapiens = organism: Homo sapiens; assay: Selectivity index, ratio of IC50 for PDE4D2 (unknown origin) to IC50 for recombinant His-tagged human PDE4B expressed in sf9 cells using cAMP as substrate by PDELight HTS cAMP phosphodiesterase Kit based luminometry
[44] = biological target: 3',5'-cyclic-AMP phosphodiesterase 4D (Homo sapiens, UniProt Q08499); assay: Inhibition of PDE4D2 (unknown origin) using cAMP as substrate preincubated with enzyme for 15 mins followed by substrate addition and incubated for 1 hr by PDELight HTS cAMP phosphodiesterase Kit based luminometry

OCCN(CCO)c1nc(N2CCCCC2)c2nc(N(CCO)CCO)nc(N3CCCCC3)c2n1
inhibition [1]: 88%
inhibition [2]: 13%
inhibition [3]: 48%
inhibition [4]: 3%
inhibition [5]: 55%

Cc1ccc([N+](=O)[O-])cc1S(=O)(=O)N(C)C
inhibition [6]: 88%
inhibition [7]: 10%
inhibition [8]: 49%

CCC1(c2ccccc2)C(=O)NC(=O)NC1=O [PHENOBARBITAL]
Activity [9]: Toxic
Activity [10]: Toxic
Activity [11]: Toxic
Activity [12]: Toxic
Activity [13]: Toxic
Activity [14]: Toxic
Activity [15]: Toxic
Activity [16]: Toxic
Activity [17]: Toxic
Activity [18]: Toxic
Activity [19]: Toxic
Activity [20]: Toxic

CN(C(=O)CCCOc1ccc2[nH]c(=O)ccc2c1)C1CCCCC1
inhibition [21]: 17%
inhibition [22]: 9%
inhibition [23]: 39%
inhibition [24]: 61%
inhibition [25]: 85%
inhibition [26]: 94%

COc1ccc(Cc2nc(O)c3c(C)nc([C@@H](CCCc4ccccc4)[C@@H](C)O)n3n2)cc1OC
inhibition [27]: 18%
inhibition [28]: 52%
inhibition [29]: 16%
inhibition [30]: 52%
inhibition [31]: 55%
inhibition [32]: 86%
inhibition [33]: 7%
inhibition [34]: 86%
inhibition [35]: 87%

CCOc1cc([C@@H](CS(C)(=O)=O)N2C(=O)c3cccc(NC(C)=O)c3C2=O)ccc1OC
inhibition [36]: 58%
inhibition [37]: 57%
inhibition [38]: 91%
inhibition [39]: 89%
inhibition [40]: 13%
inhibition [41]: 8%

C=CCn1cc(-c2ncccc2C#N)c2cc(OC)ccc21
inhibition [42]: > 75%
IC50 [43]: 1.98 µM

CCOC(=O)/C=C/c1c(-c2nc3ccccc3nc2Cl)c2cc(OC)ccc2n1C(C)C
inhibition [42]: > 75%
IC50 [43]: 5.58 µM

C=CCn1cc(-c2nc3ccccc3nc2Cl)c2ccccc21
Ratio IC50 (Homo sapiens): 4.8
inhibition [42]: > 75%
IC50 [43]: 4.67 µM
IC50 [44]: 22 µM
